# Assay: RP, GL Sciences Inertsil ODS-4, 150 × 2.1 mm, 3 µm, 40 °C, 0.3 mL/min, estimated dead time 1.1 min; A: water + 5 mM ammonium acetate; B: methanol + 5 mM ammonium acetate; gradient (min/%B) 0/5 30/95 50/95
# Conditions: stereoisomer not certain
row,LC retention time,SMILES
1,23.6 min,COc1cc(OC)nc(NC(=O)NS(=O)(=O)Nc2ccccc2C(=O)C2CC2)n1
2,28.1 min,CN(C)CCC=C1c2ccccc2CCc2ccccc21
3,21.8 min,CC(C)NCC(O)COc1cccc2ccccc12 (configuration not stated)
4,28.8 min,CC(Oc1ccc2ccccc2c1)C(=O)Nc1ccccc1 (configuration not stated)
5,11.8 min,COc1cc(NS(=O)(=O)c2ccc(N)cc2)ncn1
6,21.6 min,CC(C)NCC(O)COc1ccc(CCOCC2CC2)cc1 (configuration not stated)
7,26 min,CN(C)CCCN1c2ccccc2CCc2ccccc21
8,23.2 min,OC(CCCN1CCCCC1)(c1ccccc1)c1ccccc1
9,15.5 min,COCCOc1ccccc1S(=O)(=O)NC(=O)Nc1nc(OC)nc(OC)n1
10,21.9 min,NC(=O)N1c2ccccc2C=Cc2ccccc21
11,28.8 min,CCOC(=O)NCCOc1ccc(Oc2ccccc2)cc1
12,17.8 min,COCCc1ccc(OCC(O)CNC(C)C)cc1 (configuration not stated)
13,15.8 min,CN1CCN(CC(=O)N2c3ccccc3C(=O)Nc3cccnc32)CC1
14,25.5 min,CCC1OC(=O)C(C)C(OC2CC(C)(OC)C(O)C(C)O2)C(C)C(OC2OC(C)CC(N(C)C)C2O)C(C)(O)CC(C)C(=O)C(C)C(O)C1(C)O (configuration not stated)
15,18.2 min,CCOC(=O)c1cnn(C)c1S(=O)(=O)NC(=O)Nc1nc(OC)cc(OC)n1
16,17.4 min,CC(=O)CCCCn1c(=O)c2c(ncn2C)n(C)c1=O
17,10.6 min,Nc1ccc(S(=O)(=O)Nc2nccs2)cc1
18,20 min,CC(C)NCC(O)COc1cccc2[nH]c3ccccc3c12 (configuration not stated)
19,23.4 min,Cc1ccc(C(=O)C(C)CN2CCCCC2)cc1 (configuration not stated)
20,18.5 min,CCOc1ccc(NC(C)=O)cc1
21,16.1 min,Oc1ccc2nc(-c3cscn3)[nH]c2c1
22,13.3 min,[2H]C([2H])([2H])N=C(NC#N)NCCSCc1nc[nH]c1C
23,14.7 min,COc1cc(OC)nc(NC(=O)NS(=O)(=O)c2c(-c3nnn(C)n3)cnn2C)n1
24,15 min,COC(=O)NN=Cc1c[n+]([O-])c2ccccc2[n+]1[O-]
25,20 min,CC(C)NCC(O)COc1ccc(COCCOC(C)C)cc1 (configuration not stated)
26,19.6 min,CCCCNC(=O)NS(=O)(=O)c1ccc(C)cc1
27,26.7 min,COc1ccc(CCN(C)CCCC(C#N)(c2ccc(OC)c(OC)c2)C(C)C)cc1OC (configuration not stated)

row,LC retention time,SMILES
1,8.05 min,Nc1ccc(S(=O)(=O)Nc2ncccn2)cc1
2,9.3 min,CC(C)(C)NCC(O)c1ccc(O)c(CO)c1 (configuration not stated)
3,9.08 min,CC(C)NCC(O)c1ccc(NS(C)(=O)=O)cc1 (configuration not stated)
4,34.9 min,CCC1CCCC(OC2CCC(N(C)C)C(C)O2)C(C)C(=O)C2=CC3C(C=C(C)C4CC(OC5OC(C)C(OC)C(OC)C5OC)CC43)C2CC(=O)O1 (configuration not stated)
5,33.5 min,Cc1nn(C)c(Oc2ccccc2)c1C=NOCc1ccc(C(=O)OC(C)(C)C)cc1
6,21.3 min,COc1cc(C)nc(-n2nc(C)cc2OC)n1
7,22.2 min,CC12C=CC(=O)C=C1CCC1C2C(O)CC2(C)C1CCC2(O)C(=O)CO (configuration not stated)
8,30.3 min,C#CC1(OC(C)=O)CCC2C3CCC4=CC(=NO)CCC4C3CCC21CC (configuration not stated)
9,13.3 min,CN=C(NC#N)NCCSCc1nc[nH]c1C
10,11.6 min,Cc1ccnc(NS(=O)(=O)c2ccc(N)cc2)n1
11,21 min,CC(C(O)c1ccc(O)cc1)N1CCC(Cc2ccccc2)CC1 (configuration not stated)
12,15.1 min,[2H]C([2H])([2H])Oc1cc(NS(=O)(=O)c2ccc(N)cc2)nc(OC([2H])([2H])[2H])n1
13,17.4 min,COC(=O)c1ccc(CNS(C)(=O)=O)cc1S(=O)(=O)NC(=O)Nc1nc(OC)cc(OC)n1
14,8.97 min,CC(C)(C)NCC(O)c1cc(O)cc(O)c1 (configuration not stated)
15,9.83 min,[2H]c1c([2H])c(S(=O)(=O)Nc2cc(C)on2)c([2H])c([2H])c1N
16,20.1 min,NC1=NCC2c3ccccc3Cc3ccccc3N12 (configuration not stated)
17,21.6 min,CN(C)C(=O)Nc1cc(C(C)(C)C)on1
18,9.03 min,Cc1nnc(NS(=O)(=O)c2ccc(N)cc2)s1
19,15.5 min,COc1cc(NS(=O)(=O)c2ccc(N)cc2)nc(OC)n1
20,21 min,CCCC1CC(C(=O)NC(C(C)O)C2OC(SC)C(O)C(O)C2O)N(C)C1 (configuration not stated)
21,19.1 min,CC(=O)CC(c1ccccc1)c1c(O)c2ccccc2oc1=O (configuration not stated)
22,17.6 min,COc1cc(C)c(Cc2cnc(N)nc2N)cc1OC
23,15.4 min,Cc1cc(=O)n(-c2ccccc2)n1C
24,27.2 min,CCC1OC(=O)C(C)C(OC2CC(C)(OC)C(O)C(C)O2)C(C)C(OC2OC(C)CC(N(C)C)C2O)C(C)(OC)CC(C)C(=O)C(C)C(O)C1(C)O (configuration not stated)
25,28.4 min,OCCN(CCO)c1nc(N2CCCCC2)c2nc(N(CCO)CCO)nc(N3CCCCC3)c2n1
26,24.4 min,CC1=CC(O)CC(=O)Cc2nc(co2)C(=O)N2CCC=C2C(=O)OC(C(C)C)C(C)C=CC(=O)NCC=C1 (configuration not stated)
27,12.5 min,CNC(=C[N+](=O)[O-])NCCSCc1ccc(CN(C)C)o1

row,SMILES,LC retention time
1,CNC(=O)N(C)c1nnc(C(C)(C)C)s1,21.7 min
2,CSc1nc(NC(C)C)nc(NC(C)C)n1,27.6 min
3,COC(=O)c1ccccc1S(=O)(=O)NC(=O)Nc1nc(C)nc(OC)n1,13.9 min
4,CSC1=NC(C)(c2ccccc2)C(=O)N1Nc1ccccc1 (configuration not stated),26.3 min
5,CCC(C(=O)O)C1CCC(C)C(C(C)C(O)C(C)C(=O)C(CC)C2OC3(C=CC(O)C4(CCC(C)(C5CCC(O)(CC)C(C)O5)O4)O3)C(C)CC2C)O1 (configuration not stated),35.5 min
6,CNC(=O)N(C)c1nc2ccccc2s1,23.8 min
7,CC#Cc1cc(C)nc(Nc2ccccc2)n1,28.1 min
8,CON=C(C)c1cccc(Oc2nc(OC)cc(OC)n2)c1C(=O)OC,26.5 min
9,Cc1cccc2sc3nncn3c12,18.9 min
10,CC(C)C1(C)N=C(c2nc3ccccc3cc2C(=O)O)NC1=O (configuration not stated),14.7 min
11,COC(=O)c1ccccc1S(=O)(=O)NC(=O)N(C)c1nc(C)nc(OC)n1,16.9 min
12,[2H]C([2H])([2H])OP(N)(=O)SC([2H])([2H])[2H] (configuration not stated),4.22 min
13,[2H]c1c([2H])c([2H])c2[nH]c(NC(=O)OC)nc2c1[2H],17.1 min
14,[2H]C([2H])([2H])N(C(=O)Oc1nc(N(C)C)nc(C)c1C)C([2H])([2H])[2H],22.8 min
15,[2H]C([2H])([2H])NC(=O)ON=C(C)SC,11.9 min
16,CCOc1nc(NC)nc(NC(=O)NS(=O)(=O)c2ccccc2C(=O)OC)n1,17.7 min
17,CN1C2CC(OC(=O)C(CO)c3ccccc3)CC1C1OC12 (configuration not stated),16.4 min
18,CC1CCCCC1NC(=O)Nc1ccccc1 (configuration not stated),25.6 min
19,COC(=O)c1sccc1S(=O)(=O)NC(=O)Nc1nc(C)nc(OC)n1,13.9 min
20,CCOC(=O)CCN(SN(C)C(=O)Oc1cccc2c1OC(C)(C)C2)C(C)C,31.1 min
21,CNC(=O)Oc1cccc2c1OC(C)(C)C2,21.4 min
22,CCS(=O)(=O)c1nc2ccccn2c1S(=O)(=O)NC(=O)Nc1nc(OC)cc(OC)n1,16.3 min

row,SMILES,LC retention time
1,CCNc1nc(NC(C)C)nc(SC)n1,25.9 min
2,COC(=O)c1ccccc1CS(=O)(=O)NC(=O)Nc1nc(OC)cc(OC)n1,22.1 min
3,CCCCc1c(C)nc(N(C)C)[nH]c1=O,23.4 min
4,CNC(=O)C(=NOC)c1ccccc1Oc1ccccc1,24.6 min
5,Cc1cc(C)cc(C(=O)N(NC(=O)c2ccc3c(c2C)CCCO3)C(C)(C)C)c1,27.9 min
6,CC1=NNC(=O)N(N=Cc2cccnc2)C1,13 min
7,[2H]C([2H])([2H])NC(=O)Oc1cccc2c1OC(C)(C)C2,20.5 min
8,CCCC(=NOCC)C1=C(O)CC(CC(C)SCC)CC1=O (configuration not stated),25.6 min
9,COC=C(C(=O)OC)c1ccccc1Oc1cc(Oc2ccccc2C#N)ncn1,26.1 min
10,CCC1CCCC(OC2CCC(N(C)C)C(C)O2)C(C)C(=O)C2=CC3C(C=CC4CC(OC5OC(C)C(OC)C(OC)C5OC)CC43)C2CC(=O)O1 (configuration not stated),34.5 min
11,COc1ccc2c(c1)C13CCCCC1C(C2)N(C)CC3 (configuration not stated),24.2 min
12,COc1cc(OC)nc(NC(=O)NS(=O)(=O)c2cc(NC=O)ccc2C(=O)N(C)C)n1,15.9 min
13,Cc1ccc(NC(=O)NC(C)(C)c2ccccc2)cc1,26.7 min
14,Cc1nc(N(C)C)nc(OC(=O)N(C)C)c1C,23.4 min
15,CCCCOC(=O)N(C)SN(C)C(=O)Oc1cccc2c1OC(C)(C)C2,31.5 min
16,CCC(C)c1ccccc1OC(=O)NC (configuration not stated),25.2 min
17,COP(=S)(OC)Oc1ccc(S(C)=O)c(C)c1 (configuration not stated),22.2 min
18,Cc1cc(C2CC2)nc(Nc2ccccc2)n1,29.8 min
19,COP(=O)(OC)Oc1ccc(S(C)=O)c(C)c1 (configuration not stated),16.9 min
20,CC12CCC(=O)C=C1CCC1C2CCC2(C)C(O)CCC12 (configuration not stated),26.6 min
21,CSc1nnc(C(C)(C)C)c(=O)n1N,20.6 min
